Test results as given in US11209437B2, “Fluorescent probe and preparation method and use thereof” (Fluorescence Diagnosis (shanghai) Biotech Company Ltd., priority 2016, dated 2021).

Key:
[1] = Viscosity responsiveness: fluorescence emission spectra of probes in glycerol and methanol; format: physicochemical; settings: for Emission wavelength: excited at maximum excitation wavelength of each probe; for Fluorescence ratio in glycerol to methanol: probe 1×10^−5 M
Summary of the method: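 Each probe, from a 1×10^−2 M DMSO stock, was diluted to a final 1×10^−5 M in glycerol and in methanol. Fluorescence emission spectra were then recorded under identical conditions at each probe's maximum excitation wavelength.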

[2] = Fluorescence of free probe prior to binding to a protein tag; format: physicochemical
CLIP protein tags = assay: Fluorescence activation of probe after incubation with corresponding protein tag (CLIP); format: biochemical; settings: probe 5 μM, protein tag 10 μM, 37° C., 1 hr
Protocol: Probes were mixed with corresponding protein tags to obtain mixed samples, in which the final probe concentration was 5 μM, and the final protein tag concentration was 10 μM. The mixed samples were incubated 37° C. for 1 hr, fluorescence spectrophotometer was used to detect the change in fluorescence intensity, and the results are shown in Table 1.
From the quantum yield of probe bound to protein tag, after reacting with the protein tags, the probes of the Examples could be detected to have significant signal enhancement in corresponding excitation transmission channels, the fluorescence activation multiple reached several hundreds to a thousand or more, and the brightness was high, which illustrates that after the probes of the Examples are bound to the protein tags, fluorescence of the probes can be activated, and the probes have good fluorescent molecular switching properties. In contrast, though the fluorescence of the reference probes could also be activated, the quantum yield of activated fluorescence was very low, and the brightness was very poor. In particular, in view of comparison results between probe 98 and reference probe 99, probe 101 and reference probe 102, probe 103 and reference probe 104, probe 105 and reference probe 106, probe 107 and reference probe 108, probe 109 and reference probe 110, probe 111 and reference probe 112, probe 114 and reference probe 115, probe 117 and reference probe 118, probe 120 and reference probe 121 in Table 1, for the same fluorescent dye, when the ligand is connected to the electron donor part of the fluorescent dye, the fluorescence activation brightness of the probe is much higher than the reference probe in which ligand is connected to the electron acceptor part of the fluorescent dye.

With `CN(CCOC(=O)NCc1ccc(COc2nccc(N)n2)cc1)c1ccc(/C=C(\C#N)C(=O)OC(C)(C)C)cc1` [probe 7] the Emission wavelength [1] was 480 nm, the “Fluorescence ratio in glycerol to methanol” value (shortened to “Fluorescence ratio”) [1] was 1455 and the “Quantum yield of free probe” value [2] was under 0.001. For the same compound, the Fluorescence activation multiple (CLIP protein tags) was 1502 and the “Quantum yield of probe bound to protein tag” value (“Quantum yield of probe bound” below) (CLIP protein tags) was 0.23.

With `CN(CCOC(=O)NCc1ccc(COc2nccc(N)n2)cc1)c1ccc(/C=C(\C#N)c2nc3ccccc3o2)cc1` [probe 8] the Emission wavelength [1] was 510 nm, the “Fluorescence ratio” value [1] was 320 and the “Quantum yield of free probe” value [2] was 0.0018. For the same compound, the Fluorescence activation multiple (CLIP protein tags) was 68 and the “Quantum yield of probe bound” value (CLIP protein tags) was 0.12.

With `CN(CCOC(=O)NCc1ccc(COc2nccc(N)n2)cc1)c1ccc(/C=C(\C#N)c2nc3ccccc3s2)cc1` [probe 9] the Emission wavelength [1] was 531 nm, the “Fluorescence ratio” value [1] was 851 and the “Quantum yield of free probe” value [2] was under 0.001. For the same compound, the Fluorescence activation multiple (CLIP protein tags) was 745 and the “Quantum yield of probe bound” value (CLIP protein tags) was 0.21.

In the case of `CN1C(=O)/C(=C/c2ccc(N(C)CCOC(=O)NCc3ccc(COc4nccc(N)n4)cc3)cc2)N=C1/C=C/c1ccccc1` [probe 17], the Emission wavelength [1] is reported as 580 nm, the “Fluorescence ratio” value [1] is reported as 402 and the “Quantum yield of free probe” value [2] is reported as under 0.001. For the same compound, the Fluorescence activation multiple (CLIP protein tags) was 498 and the “Quantum yield of probe bound” value (CLIP protein tags) was 0.15.

In the case of `CN(CCOC(=O)NCc1ccc(COc2nccc(N)n2)cc1)c1ccc(C2=C(C#N)C(=C(C#N)C#N)OC2(C)C)cc1` [probe 20], the Emission wavelength [1] is reported as 535 nm, the “Fluorescence ratio” value [1] is reported as 341 and the “Quantum yield of free probe” value [2] is reported as under 0.001. For the same compound, the Fluorescence activation multiple (CLIP protein tags) was 398 and the “Quantum yield of probe bound” value (CLIP protein tags) was 0.32.

In the case of `CN(CCOC(=O)NCc1ccc(COc2nccc(N)n2)cc1)c1cc2sc(/C=C(\C#N)C(=O)OC(C)(C)C)cc2s1` [probe 27], the Emission wavelength [1] is reported as 555 nm, the “Fluorescence ratio” value [1] is reported as 1134 and the “Quantum yield of free probe” value [2] is reported as under 0.001. The Fluorescence activation multiple (CLIP protein tags) was 665 and the “Quantum yield of probe bound” value (CLIP protein tags) was 0.39.

In the case of `CN(CCOC(=O)NCc1ccc(COc2nccc(N)n2)cc1)c1cc2sc(/C=C(\C#N)c3nc4ccccc4o3)cc2s1` [probe 28], the Emission wavelength [1] is reported as 590 nm, the “Fluorescence ratio” value [1] is reported as 1132 and the “Quantum yield of free probe” value [2] is reported as under 0.001. For the same compound, the Fluorescence activation multiple (CLIP protein tags) was 551 and the “Quantum yield of probe bound” value (CLIP protein tags) was 0.31.

In the case of `CN(CCOC(=O)NCc1ccc(COc2nccc(N)n2)cc1)c1cc2sc(/C=C(\C#N)c3nc4ccccc4s3)cc2s1` [probe 29], the Emission wavelength [1] is reported as 610 nm, the “Fluorescence ratio” value [1] is reported as 998 and the “Quantum yield of free probe” value [2] is reported as under 0.001. The Fluorescence activation multiple (CLIP protein tags) was 621 and the “Quantum yield of probe bound” value (CLIP protein tags) was 0.33.

For `CN(CCOC(=O)NCc1ccc(COc2nccc(N)n2)cc1)c1ccc2cc(/C=C(\C#N)C(=O)OC(C)(C)C)sc2c1` [probe 34], the Emission wavelength [1] was 570 nm, the “Fluorescence ratio” value [1] was 1774 and the “Quantum yield of free probe” value [2] was under 0.001. The Fluorescence activation multiple (CLIP protein tags) was 857 and the “Quantum yield of probe bound” value (CLIP protein tags) was 0.48.

With `CN(CCOC(=O)NCc1ccc(COc2nccc(N)n2)cc1)c1ccc2nc(/C=C(\C#N)C(=O)OC(C)(C)C)oc2c1` [probe 45] the Emission wavelength [1] was 603 nm, the “Fluorescence ratio” value [1] was 752 and the “Quantum yield of free probe” value [2] was under 0.001. The Fluorescence activation multiple (CLIP protein tags) was 958 and the “Quantum yield of probe bound” value (CLIP protein tags) was 0.29.

In the case of `CN(CCOC(=O)NCc1ccc(COc2nccc(N)n2)cc1)c1ccc2nc(/C=C(\C#N)C(=O)OC(C)(C)C)sc2c1` [probe 53], the Emission wavelength [1] is reported as 625 nm, the “Fluorescence ratio” value [1] is reported as 401 and the “Quantum yield of free probe” value [2] is reported as under 0.001. For the same compound, the Fluorescence activation multiple (CLIP protein tags) was 579 and the “Quantum yield of probe bound” value (CLIP protein tags) was 0.18.

For `CN(CCOC(=O)NCc1ccc(COc2nccc(N)n2)cc1)c1ccc(C#C/C=C(\C#N)C(=O)OC(C)(C)C)cc1` [probe 57], the Emission wavelength [1] was 566 nm, the “Fluorescence ratio” value [1] was 762 and the “Quantum yield of free probe” value [2] was under 0.001. For the same compound, the Fluorescence activation multiple (CLIP protein tags) was 1026 and the “Quantum yield of probe bound” value (CLIP protein tags) was 0.31.

In the case of `COCCNC(=O)/C(C#N)=C/c1ccc(-c2ccc(N(C)CCOC(=O)NCc3ccc(COc4nccc(N)n4)cc3)cc2)s1` [probe 69], the Emission wavelength [1] is reported as 620 nm, the “Fluorescence ratio” value [1] is reported as 217 and the “Quantum yield of free probe” value [2] is reported as under 0.001. For the same compound, the Fluorescence activation multiple (CLIP protein tags) was 491 and the “Quantum yield of probe bound” value (CLIP protein tags) was 0.27.

With `COCCNC(=O)/C(C#N)=C/c1cc2cc3sc(N(C)CCOC(=O)NCc4ccc(COc5nccc(N)n5)cc4)cc3cc2s1` [probe 72] the Emission wavelength [1] was 640 nm, the “Fluorescence ratio” value [1] was 268 and the “Quantum yield of free probe” value [2] was 0.001. For the same compound, the Fluorescence activation multiple (CLIP protein tags) was 486 and the “Quantum yield of probe bound” value (CLIP protein tags) was 0.47.

With `CN(CCOC(=O)NCc1ccc(COc2nccc(N)n2)cc1)c1ccc(-c2ccc(/C=C(\C#N)C(=O)OC(C)(C)C)s2)s1` [probe 80] the Emission wavelength [1] was 655 nm, the “Fluorescence ratio” value [1] was 218 and the “Quantum yield of free probe” value [2] was 0.0011. The Fluorescence activation multiple (CLIP protein tags) was 349 and the “Quantum yield of probe bound” value (CLIP protein tags) was 0.38.

For `CN(CCOC(=O)NCc1ccc(COc2nccc(N)n2)cc1)c1ccc(-c2ccc(/C=C(\C#N)c3nc4ccccc4o3)s2)s1` [probe 81], the Emission wavelength [1] was 672 nm, the “Fluorescence ratio” value [1] was 235 and the “Quantum yield of free probe” value [2] was under 0.001. For the same compound, the Fluorescence activation multiple (CLIP protein tags) was 391 and the “Quantum yield of probe bound” value (CLIP protein tags) was 0.29.

In the case of `CN(CCOC(=O)NCc1ccc(COc2nccc(N)n2)cc1)c1ccc(-c2ccc(/C=C(\C#N)c3nc4ccccc4s3)s2)s1` [probe 82], the Emission wavelength [1] is reported as 681 nm, the “Fluorescence ratio” value [1] is reported as 241 and the “Quantum yield of free probe” value [2] is reported as under 0.001. The Fluorescence activation multiple (CLIP protein tags) was 321 and the “Quantum yield of probe bound” value (CLIP protein tags) was 0.21.

In the case of `CC(C)(C)OC(=O)/C(C#N)=C/c1ccc2c(c1)SCCN2CCOC(=O)NCc1ccc(COc2nccc(N)n2)cc1` [probe 84], the Emission wavelength [1] is reported as 515 nm, the “Fluorescence ratio” value [1] is reported as 121 and the “Quantum yield of free probe” value [2] is reported as under 0.001. For the same compound, the Fluorescence activation multiple (CLIP protein tags) was 431 and the “Quantum yield of probe bound” value (CLIP protein tags) was 0.16.

For `CC1=CC(C)(C)N(CCOC(=O)NCc2ccc(COc3nccc(N)n3)cc2)c2ccc(/C=C(\C#N)C(=O)OC(C)(C)C)cc21` [probe 90], the Emission wavelength [1] was 575 nm, the “Fluorescence ratio” value [1] was 109 and the “Quantum yield of free probe” value [2] was under 0.001. For the same compound, the Fluorescence activation multiple (CLIP protein tags) was 541 and the “Quantum yield of probe bound” value (CLIP protein tags) was 0.28.

For `CC1=CC(C)(C)N(CCOC(=O)NCc2ccc(COc3nccc(N)n3)cc2)c2ccc(/C=C(\C#N)c3nc4ccccc4s3)cc21` [probe 91], the Emission wavelength [1] was 612 nm, the “Fluorescence ratio” value [1] was 163 and the “Quantum yield of free probe” value [2] was 0.0013. For the same compound, the Fluorescence activation multiple (CLIP protein tags) was 192 and the “Quantum yield of probe bound” value (CLIP protein tags) was 0.24.

In the case of `CN(CCOC(=O)NCc1ccc(COc2nccc(N)n2)cc1)c1cc2c(s1)-c1sc(/C=C(/C#N)C(=O)OC(C)(C)C)cc1C2(C)C` [probe 95], the Emission wavelength [1] is reported as 645 nm, the “Fluorescence ratio” value [1] is reported as 431 and the “Quantum yield of free probe” value [2] is reported as under 0.001. The Fluorescence activation multiple (CLIP protein tags) was 553 and the “Quantum yield of probe bound” value (CLIP protein tags) was 0.42.

With `CN(CCOC(=O)NCc1ccc(COc2nccc(N)n2)cc1)c1cc2c(s1)-c1sc(/C=C(/C#N)c3nc4ccccc4o3)cc1C2(C)C` [probe 96] the Emission wavelength [1] was 675 nm, the “Fluorescence ratio” value [1] was 125 and the “Quantum yield of free probe” value [2] was under 0.001. The Fluorescence activation multiple (CLIP protein tags) was 435 and the “Quantum yield of probe bound” value (CLIP protein tags) was 0.31.

In the case of `CN(CCOC(=O)NCc1ccc(COc2nccc(N)n2)cc1)c1cc2c(s1)-c1sc(/C=C(/C#N)c3nc4ccccc4s3)cc1C2(C)C` [probe 97], the Emission wavelength [1] is reported as 700 nm, the “Fluorescence ratio” value [1] is reported as 261 and the “Quantum yield of free probe” value [2] is reported as under 0.001. The Fluorescence activation multiple (CLIP protein tags) was 812 and the “Quantum yield of probe bound” value (CLIP protein tags) was 0.23.
